From patent US12091411B2, “IRAK degraders and uses thereof” (Kymera Therapeutics, Inc., priority 2022, dated 2024) come the findings set out here.

Like-named read-outs stand apart in the source and are kept apart here. Bounds are passed on as bounds.

The target in this assay is T1, IRAK4 (Homo sapiens, UniProt Q9NWZ3).
T1 construct: Degradation of IRAK4 in OCI-LY10 was quantitatively measured using Meso Scale Discovery technology; endogenous in cells; host or cells: OCI-LY10
T1 sequence (Q9NWZ3 1-460): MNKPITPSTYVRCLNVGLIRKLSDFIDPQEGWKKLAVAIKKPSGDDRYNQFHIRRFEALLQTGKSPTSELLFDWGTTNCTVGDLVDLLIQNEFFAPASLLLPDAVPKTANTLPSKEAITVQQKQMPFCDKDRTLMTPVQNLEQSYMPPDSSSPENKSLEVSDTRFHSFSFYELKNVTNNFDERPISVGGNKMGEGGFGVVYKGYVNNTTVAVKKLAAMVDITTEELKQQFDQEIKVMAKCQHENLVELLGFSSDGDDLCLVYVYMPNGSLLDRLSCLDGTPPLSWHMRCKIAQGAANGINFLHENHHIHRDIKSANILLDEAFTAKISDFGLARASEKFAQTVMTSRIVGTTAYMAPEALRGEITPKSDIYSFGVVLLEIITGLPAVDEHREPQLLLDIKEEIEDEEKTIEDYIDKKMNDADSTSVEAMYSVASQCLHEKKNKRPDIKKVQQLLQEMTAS
Nature of the assay: IRAK4 MSD Degradation in OCI-LY10. Conditions: OCI-LY10 cells, MSD. Type of assay: cell-based. In outline:
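DC50, from a three-parameter logistic fit and reported as letter bins A (<0.01 μM), B, C, D (>0.2 μM or not tested), reflects IRAK4 loss measured by MSD electrochemiluminescence in OCI-LY10 lysates. Treatment: 8 doses, 1:3 steps, top 1 to 10 μM, 4 to 24 h, 37 °C.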

Where [1] appears, read: 4 hrs incubation, read-out: IRAK4 degradation in OCI-LY10 at 4 hrs: DC50.
[2] abbreviates: 24 hrs incubation, read-out: IRAK4 degradation in OCI-LY10 at 24 hrs: DC50.

As a reminder, the DC50 is the concentration giving 50% degradation. As to `Cn1c(=O)n(C2CCC(=O)NC2=O)c2cccc(N3CCN(CC4COC5(C4)CN(C[C@H]4CC[C@H](n6cc7cc(NC(=O)c8cccc(C(F)(F)F)n8)ncc7n6)CC4)C5)CC3)c21` (stereo partly shown) [I-662], the DC50 by setting is: under setting [1], above 0.2 µM; under setting [2], above 0.2 µM.

Consider `Cn1c(=O)n(C2CCC(=O)NC2=O)c2cccc(N3CCN(CC4COC5(C4)CN(C[C@H]4CC[C@H](n6cc7cc(NC(=O)c8cccc(C(F)(F)F)n8)c(C(C)(C)O)cc7n6)CC4)C5)CC3)c21` (stereo partly shown) [I-663], for which the DC50 under setting [1] is above 0.2 µM and the DC50 under setting [2] is above 0.2 µM. For the molecule `Cn1c(=O)n(C2CCC(=O)NC2=O)c2cccc(C3CCN(CC4COC5(C4)CN(C[C@H]4CC[C@H](n6cc(NC(=O)c7cnn8ccc(N9C[C@H]%10C[C@@H]9CO%10)nc78)c(C(F)F)n6)CC4)C5)CC3)c21` (stereo partly shown) [I-664], the DC50 reads like this: under setting [1], above 0.2 µM; under setting [2], above 0.2 µM.

As to `Cn1c(=O)n(C2CCC(=O)NC2=O)c2cccc(N3CCN(CC4COC5(C4)CN(C[C@H]4CC[C@H](n6cc7cc(NC(=O)c8cccc(C(F)(F)F)n8)ccc7n6)CC4)C5)CC3)c21` (stereo partly shown) [I-665], under setting [1], the DC50 was above 0.2 µM. Same read-out and setting: with `Cn1c(=O)n(C2CCC(=O)NC2=O)c2cccc(N3CCN(CC4COC5(C4)CN(C[C@H]4CC[C@H](n6cc7cc(NC(=O)c8cccc(C(F)(F)F)n8)ncc7n6)CC4)C5)CC3)c21` (stereo partly shown) [I-666] the figure was above 0.2 µM. `Cn1c(=O)n(C2CCC(=O)NC2=O)c2cccc(C3CCN(CC4COC5(C4)CN(C[C@H]4CC[C@H](n6cc7cc(NC(=O)c8cccc(C(F)(F)F)n8)c(C(C)(C)O)cc7n6)CC4)C5)CC3)c21` (stereo partly shown) [I-667]: the DC50 was above 0.2 µM under setting [1] and above 0.2 µM under setting [2]. On to `Cn1c(=O)n(C2CCC(=O)NC2=O)c2cccc(N3CC4(CCN(C[C@H]5CC[C@H](n6cc7cc(NC(=O)c8cccc(C(F)(F)F)n8)ncc7n6)CC5)CC4(F)F)C3)c21` (stereo partly shown) [I-668], for which the DC50 is above 0.2 µM under setting [1] and 0.01 to 0.1 µM under setting [2].

In the case of `Cn1c(=O)n(C2CCC(=O)NC2=O)c2cccc(N3CC4(CCN(C[C@H]5CC[C@H](n6cc(NC(=O)c7cnn8ccc(N9C[C@H]%10C[C@@H]9CO%10)nc78)c(C(F)F)n6)CC5)CC4(F)F)C3)c21` (stereo partly shown) [I-669], the DC50 by setting is: under setting [1], above 0.2 µM; under setting [2], below 0.01 µM. The matching figures for `Cn1c(=O)n(C2CCC(=O)NC2=O)c2cccc(OC3CC(N4CCN(C[C@H]5CC[C@H](n6cc(NC(=O)c7cnn8ccc(N9C[C@H]%10C[C@@H]9CO%10)nc78)c(C(F)F)n6)CC5)CC4)C3)c21` (stereo partly shown) [I-670]: above 0.2 µM and below 0.01 µM. The matching figures for `Cn1c(=O)n(C2CCC(=O)NC2=O)c2cccc(C3CN([C@H]4CCN(C[C@H]5CC[C@H](n6cc7cc(NC(=O)c8cccc(C(F)(F)F)n8)ccc7n6)CC5)C[C@@H]4F)C3)c21` (stereo partly shown) [I-671]: above 0.2 µM and below 0.01 µM. Regarding `Cn1c(=O)n(C2CCC(=O)NC2=O)c2cccc(C3CN([C@H]4CCN(C[C@H]5CC[C@H](n6cc7cc(NC(=O)c8cccc(C(F)(F)F)n8)ncc7n6)CC5)C[C@@H]4F)C3)c21` (stereo partly shown) [I-672], the DC50 is above 0.2 µM under setting [1] and below 0.01 µM under setting [2].

For `Cn1c(=O)n(C2CCC(=O)NC2=O)c2cccc(C3CN([C@@H]4CCN(C[C@H]5CC[C@H](n6cc(NC(=O)c7cnn8ccc(N9C[C@H]%10C[C@@H]9CO%10)nc78)c(C(F)F)n6)CC5)C[C@@H]4F)C3)c21` (stereo partly shown) [I-673], the DC50 by setting is: under setting [1], above 0.2 µM; under setting [2], below 0.01 µM. `C[C@H]1CN(c2ccn3ncc(C(=O)Nc4cn([C@H]5CC[C@H](CN6CCN(CC7CN(c8cccc9c8n(C)c(=O)n9C8CCC(=O)NC8=O)C7)CC6)CC5)nc4C(F)F)c3n2)CCO1` (stereo partly shown) [I-674]: the DC50 was above 0.2 µM under setting [1] and below 0.01 µM under setting [2].

For `COc1ccc2c(c1N1CC(CN3CCN(C[C@H]4CC[C@H](n5cc(NC(=O)c6cnn7ccc(N8C[C@H]9C[C@@H]8CO9)nc67)c(C(F)F)n5)CC4)CC3)C1)n(C)c(=O)n2C1CCC(=O)NC1=O` (stereo partly shown) [I-675], the half-maximal degradation concentration (DC50) reads like this: under setting [1], above 0.2 µM; under setting [2], below 0.01 µM.

In the case of `Cn1c(=O)n(C2CCC(=O)NC2=O)c2ccc(F)c(N3CC(CN4CCN(C[C@H]5CC[C@H](n6cc(NC(=O)c7cnn8ccc(N9C[C@H]%10C[C@@H]9CO%10)nc78)c(C(F)F)n6)CC5)CC4)C3)c21` (stereo partly shown) [I-676], the DC50 is above 0.2 µM under setting [1] and below 0.01 µM under setting [2]. The matching figures for `Cn1c(=O)n(C2CCC(=O)NC2=O)c2cccc(N3CCN(C[C@]4(O)CC[C@@H](n5cc6cc(NC(=O)c7cccc(C(F)(F)F)n7)ncc6n5)CC4)CC3)c21` (stereo partly shown) [I-677]: above 0.2 µM and below 0.01 µM.

Turning to `Cn1c(=O)n(C2CCC(=O)NC2=O)c2cccc(N3CC(F)(CN4CCN(C[C@H]5CC[C@H](n6cc(NC(=O)c7cnn8ccc(N9C[C@H]%10C[C@@H]9CO%10)nc78)c(C(F)F)n6)CC5)CC4)C3)c21` (stereo partly shown) [I-678], the DC50 under setting [1] was above 0.2 µM and the DC50 under setting [2] was below 0.01 µM.

Consider `Cn1c(=O)n(C2CCC(=O)NC2=O)c2cccc(N3CCN([C@@H]4CCN(C[C@H]5CC[C@H](n6cc(NC(=O)c7cnn8ccc(N9C[C@H]%10C[C@@H]9CO%10)nc78)c(C(F)F)n6)CC5)C[C@@H]4F)CC3)c21` (stereo partly shown) [I-679], for which the half-maximal degradation concentration (DC50) is above 0.2 µM under setting [1] and below 0.01 µM under setting [2]. For `C[C@@H]1CN(c2ccn3ncc(C(=O)Nc4cn([C@H]5CC[C@H](CN6CCN(CC7CN(c8cccc9c8n(C)c(=O)n9C8CCC(=O)NC8=O)C7)CC6)CC5)nc4C(F)F)c3n2)CCO1` (stereo partly shown) [I-680], in that order: above 0.2 µM and below 0.01 µM.

For `Cn1c(=O)n(C2CCC(=O)NC2=O)c2cccc(C3CN([C@@H]4CCN(C[C@H]5CC[C@H](n6cc(NC(=O)c7cnn8ccc(N9C[C@H]%10C[C@@H]9CO%10)nc78)c(C(F)F)n6)CC5)C[C@H]4F)C3)c21` (stereo partly shown) [I-681], the DC50 was above 0.2 µM under setting [1] and below 0.01 µM under setting [2]. The matching figures for `Cn1c(=O)n(C2CCC(=O)NC2=O)c2cccc(C3CN(C4CCN(C[C@H]5CC[C@H](n6cc(NC(=O)c7cnn8ccc(N9C[C@H]%10C[C@@H]9CO%10)nc78)c(C(F)F)n6)CC5)CC4(F)F)C3)c21` (stereo partly shown) [I-682]: above 0.2 µM and below 0.01 µM.

Turning to `Cn1c(=O)n(C2CCC(=O)NC2=O)c2cccc(N3CCN([C@@H]4CCN(C[C@H]5CC[C@H](n6cc(NC(=O)c7cnn8ccc(N9C[C@H]%10C[C@@H]9CO%10)nc78)c(C(F)F)n6)CC5)C[C@H]4F)CC3)c21` (stereo partly shown) [I-683], the DC50 under setting [1] is above 0.2 µM and the half-maximal degradation concentration (DC50) under setting [2] is below 0.01 µM. For `Cn1c(=O)n(C2CCC(=O)NC2=O)c2cccc(N3CCN(C[C@]4(O)CC[C@@H](n5cc6cc(NC(=O)c7cccc(C(F)(F)F)n7)ccc6n5)CC4)CC3)c21` (stereo partly shown) [I-684], in that order: above 0.2 µM and below 0.01 µM. For `Cn1c(=O)n(C2CCC(=O)NC2=O)c2cccc(N3CCN(C[C@H]4CC[C@H](n5cc6cc(NC(=O)c7cccc(C#N)n7)ccc6n5)CC4)CC3)c21` (stereo partly shown) [I-685], in that order: above 0.2 µM and below 0.01 µM. For `Cn1c(=O)n(C2CCC(=O)NC2=O)c2ccc(F)c(N3CCN(C[C@H]4CC[C@H](n5cc6cc(NC(=O)c7cccc(C#N)n7)ccc6n5)CC4)CC3)c21` (stereo partly shown) [I-686], in that order: above 0.2 µM and 0.01 to 0.1 µM. With `COc1ccc2c(c1N1CCN(CC3CCC(n4cc5cc(NC(=O)c6cccc(C#N)n6)ccc5n4)CC3)CC1)n(C)c(=O)n2C1CCC(=O)NC1=O` (stereo not shown) [I-687], the DC50 was above 0.2 µM under setting [1] and below 0.01 µM under setting [2]. The matching figures for `Cn1c(=O)n(C2CCC(=O)NC2=O)c2cccc(C3COC4(C3)CN(C[C@H]3CC[C@H](n5cc6cc(NC(=O)c7cccc(C(F)(F)F)n7)ncc6n5)CC3)C4)c21` (stereo partly shown) [I-688]: above 0.2 µM and below 0.01 µM.

For the molecule `Cn1c(=O)n(C2CCC(=O)NC2=O)c2cccc(C3COC4(C3)CN(C[C@H]3CC[C@H](n5cc6cc(NC(=O)c7cccc(C(F)(F)F)n7)ccc6n5)CC3)C4)c21` (stereo partly shown) [I-689], the DC50 runs as follows: under setting [1], above 0.2 µM; under setting [2], below 0.01 µM. The matching figures for `Cn1c(=O)n(C2CCC(=O)NC2=O)c2cccc([C@@H]3CCN(C[C@]4(O)CC[C@@H](n5cc6cc(NC(=O)c7cccc(C(F)(F)F)n7)ccc6n5)CC4)C[C@H]3F)c21` (stereo partly shown) [I-690]: above 0.2 µM and below 0.01 µM. Consider `Cn1c(=O)n(C2CCC(=O)NC2=O)c2cccc(C#CCOC3CCN(C[C@H]4CC[C@@H](c5ccc(C(F)F)c(NC(=O)c6cnn7ccc(N8C[C@H]9C[C@@H]8CO9)nc67)c5)CC4)CC3)c21` (stereo partly shown) [I-691], for which the DC50 is above 0.2 µM under setting [1] and above 0.2 µM under setting [2]. As to `Cc1cccc(C(=O)Nc2cc3cn([C@H]4CC[C@H](CN5CCN(c6cccc7c6n(C)c(=O)n7C6CCC(=O)NC6=O)CC5)CC4)nc3cn2)n1` (stereo partly shown) [I-692], the DC50 runs as follows: under setting [1], above 0.2 µM; under setting [2], below 0.01 µM. The matching figures for `Cn1c(=O)n(C2CCC(=O)NC2=O)c2cccc(N3CCN(C[C@H]4CC[C@H](n5cc6cc(NC(=O)c7cccc(C(F)F)n7)ncc6n5)CC4)CC3)c21` (stereo partly shown) [I-693]: above 0.2 µM and below 0.01 µM. For `Cn1c(=O)n(C2CCC(=O)NC2=O)c2ccc(F)c(N3CCN(C[C@H]4CC[C@H](n5cc6cc(NC(=O)c7cccc(C(F)(F)F)n7)ncc6n5)CC4)CC3)c21` (stereo partly shown) [I-694], in that order: above 0.2 µM and below 0.01 µM.
